pIC50: −log10 of the molar value. Inconclusive results are not listed. Active and inactive are the calls of the source.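 How the source made its calls: active means IC50 half-inhibiting concentration at or below 10 micromolar; inconclusive means IC50 above 10 and up to 20 micromolar; inactive means IC50 above 20 micromolar.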
Target: E3 ubiquitin-protein ligase RBX1 (Homo sapiens) + Cullin-1 (Homo sapiens) (UniProt P62877+Q13616)
Test: ROC1-CUL1 CTD ubiquitination inhibitors, dose response, biochemical, FRET, E1/Cdc34 cascade (AID 1347408)
Settings: in vitro di-Ub FRET

Sequence of E3 ubiquitin-protein ligase RBX1 (Homo sapiens) + Cullin-1 (Homo sapiens) (P62877 whole entry, looked up): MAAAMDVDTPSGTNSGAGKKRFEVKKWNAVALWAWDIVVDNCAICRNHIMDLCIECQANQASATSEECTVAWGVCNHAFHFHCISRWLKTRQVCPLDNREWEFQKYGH
Sequence of E3 ubiquitin-protein ligase RBX1 (Homo sapiens) + Cullin-1 (Homo sapiens) (Q13616 whole entry, looked up): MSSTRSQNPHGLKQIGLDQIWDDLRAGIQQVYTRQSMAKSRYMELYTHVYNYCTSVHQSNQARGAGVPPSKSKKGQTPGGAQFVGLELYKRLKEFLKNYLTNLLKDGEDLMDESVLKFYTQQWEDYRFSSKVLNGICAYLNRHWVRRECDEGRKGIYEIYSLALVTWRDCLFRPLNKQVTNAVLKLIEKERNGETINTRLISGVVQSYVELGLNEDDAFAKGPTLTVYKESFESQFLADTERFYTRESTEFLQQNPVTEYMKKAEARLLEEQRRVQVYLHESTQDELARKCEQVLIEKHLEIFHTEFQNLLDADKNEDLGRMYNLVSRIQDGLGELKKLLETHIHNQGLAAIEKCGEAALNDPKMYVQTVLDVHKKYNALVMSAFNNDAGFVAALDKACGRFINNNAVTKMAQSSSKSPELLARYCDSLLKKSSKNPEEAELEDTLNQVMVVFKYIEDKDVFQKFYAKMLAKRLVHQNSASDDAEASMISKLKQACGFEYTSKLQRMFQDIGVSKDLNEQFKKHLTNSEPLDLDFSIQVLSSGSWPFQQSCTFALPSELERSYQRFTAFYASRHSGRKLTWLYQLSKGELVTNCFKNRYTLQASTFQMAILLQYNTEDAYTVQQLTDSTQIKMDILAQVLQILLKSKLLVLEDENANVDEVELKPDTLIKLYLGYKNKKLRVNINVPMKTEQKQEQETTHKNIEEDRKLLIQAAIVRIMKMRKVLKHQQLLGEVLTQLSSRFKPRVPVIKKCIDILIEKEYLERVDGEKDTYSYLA

In the case of `COc1ccc(C=C2C(=O)N(Cc3ccco3)C(=O)N(C(C)C)C2=O)cc1`, the IC50 was “inactive”.
In the case of `CCNc1ccc(Br)cc(C(=O)/C=C/c2c(Cl)cccc2Cl)c1=O`, the IC50 was “inactive”.
`Cc1ccc2c(c1)-c1c(c(C(=O)N3CCN(c4cc(C)ccc4C)CC3)nn1C)CS2` was tested, and the IC50 was “inactive”.
In the case of `CCOc1cccc2c1N[C@@H](c1ccc(C(=O)O)cc1)[C@H]1CC=C[C@@H]21`, the IC50 was “inactive”.
For `CNc1ccccc(C(=O)C=Cc2ccc3c(c2)OCO3)c1=O`, the IC50 was “inactive”.
For `CN(CCC(=O)C=Cc1ccc(Cl)c(Cl)c1)CCc1ccc2c(c1)OCO2`, the IC50 was “inactive”.
In the case of `NCCCSc1nc2c(c(=O)n1Cc1ccccc1)C1(CCCCC1)Cc1ccccc1-2`, the IC50 was “inactive”.
`CCCCCCCCCOc1ccc(C#CC(=O)O)cc1` was tested, and the pIC50 was 5.38.
In the case of `Cc1ccc(NC(=O)c2ccc(Cl)cc2Cl)c(S(=O)(=O)O)c1`, the IC50 was “inactive”.
`Cc1ccc([C@@H]2Nc3c(ccc(C(=O)O)c3C)[C@@H]3C=CC[C@@H]32)cc1` was tested, and the IC50 was “inactive”.
For `CCOc1ccc2nc3cc(NC(=O)c4ccco4)ccc3c(N)c2c1`, the pIC50 was 5.32.

Source: PubChem BioAssay AID1347408 (Pan Lab, Icahn School of Medicine at Mount Sinai, 2020)
